The test system of experiment [1] is glomerular rIgA deposition. Description: Passive rat model of IgA deposition (rat rIgA injection), glomerular immunofluorescence. The note with it: rats, 250 mg/kg s.c. daily 2 h before rIgA i.v., 5 days, n=3; control 1384±290. It counts as in vivo, Wistar rats. How it is done: To establish the passive rat model, 5 mg/kg.BW recombinant rat rIgA, which contained a fraction of poly-rIgA, were i.v. injected daily to six 14-weeks old male Wistar rats (Charles River Labs, USA) for 5 consecutive days. Every day, three rats in each group had received a subcutaneous dose of either 250 mg/kg cysteamine, or buffer control, two hours before the rIgA injection. Twenty-four hours after the last injection of rIgA, kidneys were collected for immunofluorescence detection of deposits with goat-anti-rat IgA antibody (Cat: STAR111, Biorad laboratory). Similarly, a passive IgA nephrophathy mouse model was established by injecting 35 mg/kg purified human IgA1 in BALB/c mice (Charles River Labs). Two hours before IgA1 injection, six mice in each experimental group had each received a pretreatment dose of either 200 mg/kg cysteamine, or PBS, via subcutaneous injection. Two and a half hours after human IgA1 injection, kidneys were harvested, and specimens were stained with FITC-conjugated anti-human IgA antibody (Cat: 2050-02, SouthernBiotech). Plasma samples were collected at 0.5 h, 1 h and 2 h after IgA1 injection of all mice.
Frozen tissues were sectioned at 4 μm for IgA detection using goat anti-rat IgA (Cat: STAR111, Bio-Rad Laboratories) at 1:100, or anti-human IgA antibody (Cat: 2050-02, […]) at 1:80 dilution. […]

The test system of experiment [2] is natural IgA1 assembly (two heavy chains and two light chains connected via disulfide bonds). Description: Ex vivo study: integrity of natural IgA assembly under thiol/reducing agents. It counts as biochemical. Here is the method: The overall complex size of IgA aggregates was determined either by size-exclusion chromatography (SEC: Superdex 200 Increase 10/300 by GL Cytiva), or by SDS-PAGE. For evaluating the involvement of intermolecular disulfide connectivity in IgA complexes, IgA samples were treated with either reducing agents, such as DTT, TCEP or reduced glutathione (Sigma), or interventional drugs, such as cysteamine (Sigma), WR-1065 (Sigma) and N-Acetyl-L-cysteine (VWR Chemicals) in phosphate-buffered saline (PBS) pH7.4. Before running on SEC, samples were treated with the drugs at indicated concentrations at 37° C. for one hour.
Proteins in sample buffer (Bio-Rad Laboratories, Hercules, CA, USA) with or without TCEP (for reducing or nonreducing condition, respectively) were resolved by 4-12% SDS-PAGE (Bio-Rad Laboratories). IgA bands were subsequently visualized either by staining with GelCode Blue (Thermo Fisher Scientific), or by Western blotting on PVDF membrane. For Western blotting, 5% non-fat milk was used in blocking for one hour at room temperature. The membrane was then incubated with mouse anti-Histag antibody (Thermo Scientific), or HRP-conjugated goat anti-rat IgA α-chain antibody (Cat. ab97185, Abcam, UK), or goat anti-human IgA HRP antibody (Cat: 2050-05, SouthernBiotech) for detecting rat or human IgA (Fc), respectively. The membrane was developed using the Clarity™ ECL substrate (Bio-Rad Laboratories, CA, USA).

As to `NCCS` [cysteamine], in experiment [1], the “quantitation of rIgA deposit in glomeruli (Mean±SEM immunofluorescence intensity)” value was 523±76. Further, the “disruption of natural IgA assembly / normal pairing of IgA heavy chains” value in experiment [2] was “did not cause unwanted disruption of natural IgA1 assembly”.

For the origin of these results see patent US12263144B2, “Methods of treating IgA nephropathy with thiol-containing molecules” (Accubit LLC—Biotechnology, priority 2020, dated 2025).
